Calls of active or inactive are those of the source. No cut-off for these calls is given here.

Experiment [1] relates to Trypanosoma cruzi. Nature of the experiment: Antitrypanosomal activity against Trypanosoma cruzi CA1/72 infected in recombinase Rag1 deficient mouse assessed as Trypanosoma-specific kinetoplast DNA in spleen at 50 mg/kg, ip twice daily for 27 days by PCR. It is filed as functional, organism-based. Also on record: dose 50 mg/kg.
Experiment [2] deals with Trypanosoma cruzi. Nature of the experiment: Antitrypanosomal activity against Trypanosoma cruzi CA1/72 infected in recombinase Rag1 deficient mouse assessed as Trypanosoma-specific kinetoplast DNA in liver at 50 mg/kg, ip twice daily for 27 days by PCR. In kind it is functional, organism-based. Also on record: dose 50 mg/kg.
Experiment [3] concerns Trypanosoma cruzi. Description: Antitrypanosomal activity against Trypanosoma cruzi CA1/72 infected in recombinase Rag1 deficient mouse assessed as protection against liver infection at 50 mg/kg, ip twice daily for 27 days measured at 16 to 24 weeks postinfection by histopathology. It is filed as functional, organism-based. Also noted: dose 50 mg/kg.
In experiment [4] the test system is Trypanosoma cruzi. Nature of the experiment: Antitrypanosomal activity against Trypanosoma cruzi CA1/72 infected in recombinase Rag1 deficient mouse assessed as Trypanosoma-specific kinetoplast DNA in blood at 50 mg/kg, ip twice daily for 27 days by PCR. It is filed as functional, organism-based. Also noted: dose 50 mg/kg.
Experiment [5] deals with Trypanosoma cruzi. Nature of the experiment: Antitrypanosomal activity against Trypanosoma cruzi CA1/72 infected in immunocompetent C3HeB/FeJ mouse assessed as protection against lethal acute Chaga's disease at 50 mg/kg, ip twice daily for 27 days. It is filed as functional. Conditions: route intraperitoneal.
The test system of experiment [6] is Trypanosoma cruzi. Description: Antitrypanosomal activity against Trypanosoma cruzi CA1/72 infected in recombinase Rag1 deficient mouse assessed as protection against skeletal muscle infection at 50 mg/kg, ip twice daily for 27 days measured at 16 to 24 weeks postinfection by histopathology. In kind it is functional, organism-based. The conditions noted are these: Muscle tissue. Also on record: dose 50 mg/kg.

Experiment [7] relates to Trypanosoma cruzi. Description: Antitrypanosomal activity against Trypanosoma cruzi CA1/72 infected in recombinase Rag1 deficient mouse assessed as protection against spleen infection at 50 mg/kg, ip twice daily for 27 days measured at 16 to 24 weeks postinfection by histopathology. It is filed as functional, organism-based. Also on record: dose 50 mg/kg.
Experiment [8] has as its system Trypanosoma cruzi. Nature of the experiment: Antitrypanosomal activity against Trypanosoma cruzi CA1/72 infected in recombinase Rag1 deficient mouse assessed as protection against lethal acute Chaga's disease at 50 mg/kg, ip twice daily for 27 days. The conditions noted are these: route intraperitoneal. In kind it is functional.
For experiment [9], the system named is Trypanosoma cruzi. Description: Antitrypanosomal activity against Trypanosoma cruzi CA1/72 infected in recombinase Rag1 deficient mouse assessed as protection against heart infection at 50 mg/kg, ip twice daily for 27 days measured at 16 to 24 weeks postinfection by histopathology. In kind it is functional, organism-based. Also noted: dose 50 mg/kg.
In experiment [10] the test system is Trypanosoma cruzi. Nature of the experiment: Antitrypanosomal activity against Trypanosoma cruzi CA1/72 infected in recombinase Rag1 deficient mouse assessed as protection against colon infection at 50 mg/kg, ip twice daily for 27 days measured at 16 to 24 weeks postinfection by histopathology. In kind it is functional, organism-based. Also on record: dose 50 mg/kg.

Experiment [11] concerns Trypanosoma cruzi. Nature of the experiment: Antitrypanosomal activity against Trypanosoma cruzi CA1/72 infected in recombinase Rag1 deficient mouse assessed as survival from lethal infection at 50 mg/kg, ip twice daily for 27 days. It is filed as functional. Conditions: route intraperitoneal.
Experiment [12] has as its system Trypanosoma cruzi. Description: Antitrypanosomal activity against Trypanosoma cruzi CA1/72 infected in recombinase Rag1 deficient mouse blood assessed as Trypanosoma-specific kinetoplast DNA in blood at 50 mg/kg, ip twice daily for 27 days measured after 80 to 160 days post-infection by PCR. In kind it is functional, organism-based. Also noted: dose 50 mg/kg.
The test system of experiment [13] is Trypanosoma cruzi. Nature of the experiment: Antitrypanosomal activity against Trypanosoma cruzi CA1/72 infected in recombinase Rag1 deficient mouse assessed as Trypanosoma-specific kinetoplast DNA in heart at 50 mg/kg, ip twice daily for 27 days by PCR. Also on record: dose 50 mg/kg. It is filed as functional, organism-based.

In the case of `CN1CCN(C(=O)N[C@@H](Cc2ccccc2)C(=O)N[C@H](/C=C/S(=O)(=O)c2ccccc2)CCc2ccccc2)CC1` [K-777], the outcome in the experiment on Trypanosoma cruzi [1], in the experiment with Trypanosoma cruzi [2], in the experiment with Trypanosoma cruzi [3], in the experiment on Trypanosoma cruzi [6], in the experiment on Trypanosoma cruzi [7] and in the experiment with Trypanosoma cruzi [9] was Active. In addition, the outcome in the experiment on Trypanosoma cruzi [10], with Trypanosoma cruzi [12] and with Trypanosoma cruzi [13] was Active. Moreover, the outcome with Trypanosoma cruzi [4] was inactive. Moreover, the Activity in the experiment with Trypanosoma cruzi [5] was determined as 100%; in the experiment on Trypanosoma cruzi [8], 60%. In addition, the Survival in the experiment with Trypanosoma cruzi [11] came out at 150 days.

These data come from ChEMBL document CHEMBL1137634, “A cysteine protease inhibitor cures Chagas' disease in an immunodeficient-mouse model of infection” (2007).
